According to patent US6908931B2, “Tetrahydroisoquinoline derivatives as melatonin MT2 antagonists” (Bristol-Myers Squibb Company, priority 2003, dated 2005):

What follows are compounds tested against T1, human MT2 receptor (Homo sapiens, UniProt P49286) (assay: Melatonin receptor binding assay (MT2), 2-[125I]-iodomelatonin). Details: membrane homogenates of NIH-3T3 cells expressing MT2; 2-[125I]-iodomelatonin 0.2 nM; 37° C., 1 hour; read-out: MT2 IC50.
T1 construct: melatonin MT1 and MT2 receptors cDNA were individually subcloned into pcDNA3 and introduced into NIH-3T3 cells using Lipofectamine; expressed in transfected cells
T1 sequence (P49286 1-362): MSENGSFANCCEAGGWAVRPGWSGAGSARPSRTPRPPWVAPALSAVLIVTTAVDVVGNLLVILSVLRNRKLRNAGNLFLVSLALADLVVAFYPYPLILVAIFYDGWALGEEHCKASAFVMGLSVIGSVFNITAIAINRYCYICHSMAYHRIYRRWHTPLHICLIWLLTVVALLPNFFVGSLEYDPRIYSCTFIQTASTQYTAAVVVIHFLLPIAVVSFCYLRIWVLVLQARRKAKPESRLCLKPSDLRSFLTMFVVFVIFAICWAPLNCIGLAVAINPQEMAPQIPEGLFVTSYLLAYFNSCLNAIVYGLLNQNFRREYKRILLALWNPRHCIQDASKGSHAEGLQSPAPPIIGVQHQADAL
Procedure: Melatonin receptor binding assay.
Membrane homogenates: melatonin MT1 and MT2 receptors cDNA were individually subcloned into pcDNA3 and introduced into NIH-3T3 cells using Lipofectamine. […] For preparing membrane homogenates, pellets are thawed on ice, and re-suspended in TME buffer in the presence of 10 μg/ml aprotinin and leupeptin, and 100 μM phenylmethylsulfonylfluoride. The cells were then homogenized using a dounce homogenizer, and centrifuged. The resulting pellet was re-suspended with dounce homogenizer in TME (supplemented with the above protease inhibitors) and frozen. On the day of assay, a small aliquot was thawed on ice and re-suspended in the ice cold TME (1:50-1:100 v/v) and held on ice until assayed. Incubation is at 37° C. for 1 hour. Reaction is terminated by filtration. Filters were washed 3 times.
For COc1cc2c(cc1Br)CCN(C(=O)c1cccc([N+](=O)[O-])c1)C2CC(c1ccccc1)c1ccccc1 (stereo not shown) [Example 37], the IC50 was 100 to 1000 nM.
COc1cc2c(cc1OC)C(CC(c1ccccc1)c1ccccc1)N(C(=O)c1ccc(C(F)(F)F)cc1)CC2 (stereo not shown) [Example 54] showed an IC50 of 100 to 1000 nM.
COc1cc2c(cc1OC)C(CC(c1ccccc1)c1ccccc1)N(C(=O)C1CCCCC1)CC2 (stereo not shown) [Example 44] was tested, and the IC50 was < 100 nM.
For O=C(C1CC1)N1CCc2cc3c(cc2C1CCc1ccc(Cl)cc1)OCO3 (stereo not shown) [Example 139], the IC50 was < 100 nM.
With O=C(C1CCCC1)N1CCc2cc3c(cc2C1CCc1ccc(F)cc1)OCO3 (stereo not shown) [Example 102] the IC50 was < 100 nM.
COc1cc2c(cc1OC)C(CC(c1ccccc1)c1ccccc1)N(C(=O)c1ccccc1)CC2 (stereo not shown) [Example 6, N-benzoyl 1-(2,2-diphenyleth-1-yl)-6,7-dimethoxy-1,2,3,4-tetrahydroisoquinoline] gave an IC50 of 100 to 1000 nM.
For COc1ccc2c(c1)C(CCc1ccc(F)cc1)N(C(=O)C1CCCC1)CC2 (stereo not shown) [Example 116], the IC50 was < 100 nM.
COc1cc2c(cc1OC)C(CC(c1ccccc1)c1ccccc1)N(C(N)=O)CC2 (stereo not shown) [Example 8, N-carbamoyl 1-(2,2-diphenyleth-1-yl)-6,7-dimethoxy-1,2,3,4-tetrahydroisoquinoline] was tested, and the IC50 was < 100 nM.
With CCC(=O)N1CCc2cc(OC)c(OC)cc2C1CCc1cccc(OC)c1 (stereo not shown) [Example 87] the IC50 was < 100 nM.
COc1cc2c(cc1OC)C(CC(c1ccccc1)c1ccccc1)N(C=O)CC2 (stereo not shown) [Example 2, N-formyl 1-(2,2-diphenyleth-1-yl)-6,7-dimethoxy-1,2,3,4-tetrahydroisoquinoline] was tested, and the IC50 was < 100 nM.
COc1ccc2c(c1)C(CCc1ccc(F)cc1)N(C(=O)COC(C)=O)CC2 (stereo not shown) [Example 118] gave an IC50 of 100 to 1000 nM.
With CCCCCCC(=O)N1CCc2cc(Br)c(OC)cc2C1CC(c1ccccc1)c1ccccc1 (stereo not shown) [Example 35] the IC50 was < 100 nM.
In the case of COc1cc2c(cc1OC)C(CCc1ccccc1)N(C(=O)C1CCC1)CC2 (stereo not shown) [Example 57], the IC50 is reported as < 100 nM.
In the case of COc1ccc2c(c1)C(CC(c1ccccc1)c1ccccc1)N(C(=O)c1cccc([N+](=O)[O-])c1)CC2 (stereo not shown) [Example 80], the IC50 is reported as 100 to 1000 nM.
For COc1cc2c(cc1OC)C(CC(c1ccccc1)c1ccccc1)N(C(=O)C1CC1)CC2 (stereo not shown) [Example 5, N-cyclopropylcarbonyl 1-(2,2-diphenyleth-1-yl)-6,7-dimethoxy-1,2,3,4-tetrahydroisoquinoline], the IC50 was < 100 nM.
For COc1cc2c(c(OC)c1)C(CC(c1ccccc1)c1ccccc1)N(C(C)=O)CC2 (stereo not shown) [Example 21], the IC50 was < 100 nM.
In the case of CC(=O)N1CCc2cc3c(cc2C1CCc1ccc(F)cc1)OCO3 (stereo not shown) [Example 94], the IC50 is reported as 100 to 1000 nM.
CC(C)COC(=O)N1CCc2cc3c(cc2C1CCc1ccc(Cl)cc1)OCO3 (stereo not shown) [Example 148] gave an IC50 of 100 to 1000 nM.
For COc1ccc2c(c1)C(CC(c1ccccc1)c1ccccc1)N(C(C)=O)CC2 (stereo not shown) [Example 20], the IC50 was < 100 nM.
O=C(c1ccno1)N1CCc2cc3c(cc2C1CCc1ccc(Cl)cc1)OCO3 (stereo not shown) [Example 145] gave an IC50 of 100 to 1000 nM.
O=C(OCc1ccccc1)N1CCc2cc3c(cc2C1CCc1ccc(Cl)cc1)OCO3 (stereo not shown) [Example 143] gave an IC50 of 100 to 1000 nM.
In the case of COc1cc2c(cc1Br)CCN(C(=O)COc1ccccc1)C2CC(c1ccccc1)c1ccccc1 (stereo not shown) [Example 31], the IC50 is reported as 100 to 1000 nM.
In the case of COc1cc2c(cc1OC)C(CCc1ccccc1)N(C(=O)Cc1ccccc1)CC2 (stereo not shown) [Example 68], the IC50 is reported as 100 to 1000 nM.
Work on CC(=O)OCC(=O)N1CCc2cc3c(cc2C1CCc1ccc(Cl)cc1)OCO3 (stereo not shown) [Example 146] yielded an IC50 of 100 to 1000 nM.
COc1cc2c(cc1OC)C(CCc1ccccc1)N(C(=O)c1ccco1)CC2 (stereo not shown) [Example 55] was tested, and the IC50 was < 100 nM.
CNC(=O)N1CCc2cc(OC)c(OC)cc2C1CC(c1ccccc1)c1ccccc1 (stereo not shown) [Example 9, N-methylcarbamoyl 1-(2,2-diphenyleth-1-yl)-6,7-dimethoxy-1,2,3,4-tetrahydroisoquinoline] was tested, and the IC50 was < 100 nM.
CC(C)COC(=O)N1CCc2cc3c(cc2C1CCc1ccc(F)cc1)OCC3 (stereo not shown) [Example 135] gave an IC50 of 100 to 1000 nM.
In the case of COc1ccc2c(c1)C(CCc1ccc(F)cc1)N(C(=O)C=Cc1ccccc1)CC2 (stereo not shown) [Example 122], the IC50 is reported as 100 to 1000 nM.
COc1cc2c(cc1Br)CCN(C(=O)C1CCCCC1)C2CC(c1ccccc1)c1ccccc1 (stereo not shown) [Example 33] was tested, and the IC50 was 100 to 1000 nM.
COc1ccc2c(c1)C(CCc1ccc(F)cc1)N(C(=O)OCc1ccccc1)CC2 (stereo not shown) [Example 114] gave an IC50 of 100 to 1000 nM.
Work on COc1ccc2c(c1)C(CC(c1ccccc1)c1ccccc1)N(C(=O)CC(C)(C)C)CC2 (stereo not shown) [Example 78] yielded an IC50 of 100 to 1000 nM.
In the case of COc1cc2c(cc1OC)C(CCc1ccccc1)N(C(=O)c1cccc([N+](=O)[O-])c1)CC2 (stereo not shown) [Example 65], the IC50 is reported as 100 to 1000 nM.
Work on COc1cc2c(cc1OC)C(CC1c3ccccc3-c3ccccc31)N(C(C)=O)CC2 (stereo not shown) [Example 26] yielded an IC50 of 100 to 1000 nM.
With CC(=O)OCC(=O)N1CCc2cc3c(cc2C1CCc1ccc(F)cc1)OCO3 (stereo not shown) [Example 104] the IC50 was 100 to 1000 nM.
Compound COc1cc2c(cc1Br)CCN(C(=O)CC(C)(C)C)C2CC(c1ccccc1)c1ccccc1 (stereo not shown) [Example 36] has an IC50 of 100 to 1000 nM.
CCCCCCCCCC(=O)N1CCc2cc(OC)c(OC)cc2C1CCc1ccccc1 (stereo not shown) [Example 62] gave an IC50 of 100 to 1000 nM.
COc1ccc2c(c1)C(CCc1ccc(F)cc1)N(C(=O)CCl)CC2 (stereo not shown) [Example 112] was tested, and the IC50 was < 100 nM.
With COc1cc2c(cc1OC)C(CCc1ccccc1)N(C(=O)c1ccc([N+](=O)[O-])cc1)CC2 (stereo not shown) [Example 66] the IC50 was 100 to 1000 nM.
For COc1cc2c(cc1Br)CCN(C(=O)C1CCC1)C2CC(c1ccccc1)c1ccccc1 (stereo not shown) [Example 32], the IC50 was 100 to 1000 nM.
For CC(=O)N1CCc2cc3c(cc2C1CC(c1ccccc1)c1ccccc1)OCO3 (stereo not shown) [Example 91], the IC50 was 100 to 1000 nM.
COc1ccc2c(c1OC)CCN(C(C)=O)C2CC(c1ccccc1)c1ccccc1 (stereo not shown) [Example 24] was tested, and the IC50 was 100 to 1000 nM.
COc1cc2c(cc1OC)C(CCc1ccccc1)N(C(C)=O)CC2 (stereo not shown) [Example 14] was tested, and the IC50 was < 100 nM.
COc1cc2c(cc1Br)CCN(C(=O)c1ccc(C)cc1)C2CC(c1ccccc1)c1ccccc1 (stereo not shown) [Example 39] gave an IC50 of 100 to 1000 nM.
O=C(c1ccccc1)N1CCc2cc3c(cc2C1CCc1ccc(F)cc1)OCO3 (stereo not shown) [Example 93] gave an IC50 of 100 to 1000 nM.
Work on COc1ccc(C(=O)N2CCc3ccc(OC)cc3C2CC(c2ccccc2)c2ccccc2)cc1 (stereo not shown) [Example 79] yielded an IC50 of 100 to 1000 nM.
In the case of CCCC(=O)N1CCc2ccc(OC)cc2C1CCc1ccc(F)cc1 (stereo not shown) [Example 115], the IC50 is reported as < 100 nM.
